From the supplement of paper PMC6045584
± gives the standard deviation of the averaged measurements.

Assays:
ABIRATERONE = compound: C[C@]12CC[C@H](O)CC1=CC[C@@H]1[C@@H]2CC[C@]2(C)C(c3cccnc3)=CC[C@@H]12 [ABIRATERONE]; experiment: surviving fraction relative to DMSO-only wells; higher = less growth inhibition; conditions: exposure time: 5 days
Summary of the method: (§1)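 In 384-well plates, 250–500 log-phase tumour cells per well were given 24 hours before five days of continuous exposure to inhibitors at 0.5, 1, 5, 10, 50, 100, 500 and 1000 nM. Surviving fraction is luminescence from CellTiter-Glo, normalised to the median of wells containing DMSO alone. Reading took place after 10 minutes at room temperature.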

DASATINIB = compound: Cc1nc(Nc2ncc(C(=O)Nc3c(C)cccc3Cl)s2)cc(N2CCN(CCO)CC2)n1 [DASATINIB]; experiment: as above; conditions: exposure time: 5 days
Summary of the method: as §1

SCC47 HEADNECK
surviving fraction (ABIRATERONE; 0.5 nM): 1.18 ± 0.061 | surviving fraction (ABIRATERONE; 1 nM): 1.11 ± 0.027 | surviving fraction (ABIRATERONE; 5 nM): 1.17 ± 0.061 | surviving fraction (ABIRATERONE; 10 nM): 1.19 ± 0.1 | surviving fraction (ABIRATERONE; 50 nM): 1.22 ± 0.13 | surviving fraction (ABIRATERONE; 100 nM): 1.36 ± 0.098 | surviving fraction (ABIRATERONE; 500 nM): 1.25 ± 0.093 | surviving fraction (ABIRATERONE; 1000 nM): 1.17 ± 0.077 | surviving fraction (DASATINIB; 0.5 nM): 0.961 ± 0.073 | surviving fraction (DASATINIB; 1 nM): 0.965 ± 0.067 | surviving fraction (DASATINIB; 5 nM): 0.971 ± 0.065 | surviving fraction (DASATINIB; 10 nM): 0.9 ± 0.039 | surviving fraction (DASATINIB; 50 nM): 0.698 ± 0.0083 | surviving fraction (DASATINIB; 100 nM): 0.38 ± 0.027 | surviving fraction (DASATINIB; 500 nM): 0.078 ± 0.011 | surviving fraction (DASATINIB; 1000 nM): 0.0587 ± 0.0074

MG63 BONE
surviving fraction (ABIRATERONE; 0.5 nM): 1.09 ± 0.022 | surviving fraction (ABIRATERONE; 1 nM): 1.06 ± 0.038 | surviving fraction (ABIRATERONE; 5 nM): 1.11 ± 0.057 | surviving fraction (ABIRATERONE; 10 nM): 1.09 ± 0.042 | surviving fraction (ABIRATERONE; 50 nM): 1.09 ± 0.021 | surviving fraction (ABIRATERONE; 100 nM): 1.07 ± 0.045 | surviving fraction (ABIRATERONE; 500 nM): 1.05 ± 0.041 | surviving fraction (ABIRATERONE; 1000 nM): 1.03 ± 0.017 | surviving fraction (DASATINIB; 0.5 nM): 0.899 ± 0.035 | surviving fraction (DASATINIB; 1 nM): 0.901 ± 0.013 | surviving fraction (DASATINIB; 5 nM): 0.785 ± 0.015 | surviving fraction (DASATINIB; 10 nM): 0.691 ± 0.0046 | surviving fraction (DASATINIB; 50 nM): 0.469 ± 0.0076 | surviving fraction (DASATINIB; 100 nM): 0.357 ± 0.012 | surviving fraction (DASATINIB; 500 nM): 0.204 ± 0.0021 | surviving fraction (DASATINIB; 1000 nM): 0.194 ± 0.0071

CAL72 BONE
surviving fraction (ABIRATERONE; 0.5 nM): 1.087 ± 0.0031 | surviving fraction (ABIRATERONE; 1 nM): 1.1 ± 0.023 | surviving fraction (ABIRATERONE; 5 nM): 1.09 ± 0.056 | surviving fraction (ABIRATERONE; 10 nM): 1.09 ± 0.043 | surviving fraction (ABIRATERONE; 50 nM): 1.16 ± 0.012 | surviving fraction (ABIRATERONE; 100 nM): 1.15 ± 0.019 | surviving fraction (ABIRATERONE; 500 nM): 1.13 ± 0.048 | surviving fraction (ABIRATERONE; 1000 nM): 1.07 ± 0.027 | surviving fraction (DASATINIB; 0.5 nM): 1.01 ± 0.048 | surviving fraction (DASATINIB; 1 nM): 1.01 ± 0.041 | surviving fraction (DASATINIB; 5 nM): 0.862 ± 0.16 | surviving fraction (DASATINIB; 10 nM): 0.618 ± 0.25 | surviving fraction (DASATINIB; 50 nM): 0.269 ± 0.12 | surviving fraction (DASATINIB; 100 nM): 0.233 ± 0.12 | surviving fraction (DASATINIB; 500 nM): 0.226 ± 0.12 | surviving fraction (DASATINIB; 1000 nM): 0.221 ± 0.12

CME SYNOVIAL
surviving fraction (ABIRATERONE; 0.5 nM): 1.28 ± 0.1 | surviving fraction (ABIRATERONE; 1 nM): 1.38 ± 0.15 | surviving fraction (ABIRATERONE; 5 nM): 1.43 ± 0.15 | surviving fraction (ABIRATERONE; 10 nM): 1.29 ± 0.086 | surviving fraction (ABIRATERONE; 50 nM): 1.37 ± 0.17 | surviving fraction (ABIRATERONE; 100 nM): 1.37 ± 0.029 | surviving fraction (ABIRATERONE; 500 nM): 1.34 ± 0.18 | surviving fraction (ABIRATERONE; 1000 nM): 1.2 ± 0.18 | surviving fraction (DASATINIB; 0.5 nM): 0.831 ± 0.15 | surviving fraction (DASATINIB; 1 nM): 0.827 ± 0.1 | surviving fraction (DASATINIB; 5 nM): 0.752 ± 0.088 | surviving fraction (DASATINIB; 10 nM): 0.713 ± 0.1 | surviving fraction (DASATINIB; 50 nM): 0.598 ± 0.028 | surviving fraction (DASATINIB; 100 nM): 0.464 ± 0.042 | surviving fraction (DASATINIB; 500 nM): 0.411 ± 0.075 | surviving fraction (DASATINIB; 1000 nM): 0.383 ± 0.036

93VU HEADNECK
surviving fraction (ABIRATERONE; 0.5 nM): 1.2 ± 0.027 | surviving fraction (ABIRATERONE; 1 nM): 1.15 ± 0.12 | surviving fraction (ABIRATERONE; 5 nM): 1.12 ± 0.031 | surviving fraction (ABIRATERONE; 10 nM): 1.2 ± 0.024 | surviving fraction (ABIRATERONE; 50 nM): 1.32 ± 0.038 | surviving fraction (ABIRATERONE; 100 nM): 1.19 ± 0.056 | surviving fraction (ABIRATERONE; 500 nM): 1.17 ± 0.12 | surviving fraction (ABIRATERONE; 1000 nM): 1.11 ± 0.12 | surviving fraction (DASATINIB; 0.5 nM): 0.779 ± 0.041 | surviving fraction (DASATINIB; 1 nM): 0.788 ± 0.054 | surviving fraction (DASATINIB; 5 nM): 0.829 ± 0.036 | surviving fraction (DASATINIB; 10 nM): 0.752 ± 0.053 | surviving fraction (DASATINIB; 50 nM): 0.276 ± 0.02 | surviving fraction (DASATINIB; 100 nM): 0.132 ± 0.016 | surviving fraction (DASATINIB; 500 nM): 0.0923 ± 0.0015 | surviving fraction (DASATINIB; 1000 nM): 0.0923 ± 0.013

143B BONE
surviving fraction (ABIRATERONE; 0.5 nM): 1.04 ± 0.013 | surviving fraction (ABIRATERONE; 1 nM): 1.046 ± 0.005 | surviving fraction (ABIRATERONE; 5 nM): 1.05 ± 0.023 | surviving fraction (ABIRATERONE; 10 nM): 1.03 | surviving fraction (ABIRATERONE; 50 nM): 1.06 ± 0.035 | surviving fraction (ABIRATERONE; 100 nM): 1.07 ± 0.035 | surviving fraction (ABIRATERONE; 500 nM): 1.02 ± 0.012 | surviving fraction (ABIRATERONE; 1000 nM): 1.01 ± 0.029 | surviving fraction (DASATINIB; 0.5 nM): 1.04 ± 0.058 | surviving fraction (DASATINIB; 1 nM): 1.03 ± 0.025 | surviving fraction (DASATINIB; 5 nM): 1.01 ± 0.046 | surviving fraction (DASATINIB; 10 nM): 0.9835 ± 0.00071 | surviving fraction (DASATINIB; 50 nM): 0.8695 ± 0.005 | surviving fraction (DASATINIB; 100 nM): 0.806 ± 0.019 | surviving fraction (DASATINIB; 500 nM): 0.7575 ± 0.0035 | surviving fraction (DASATINIB; 1000 nM): 0.75 ± 0.042

SUM149 BREAST
surviving fraction (ABIRATERONE; 0.5 nM): 1.05 ± 0.046 | surviving fraction (ABIRATERONE; 1 nM): 1.006 ± 0.01 | surviving fraction (ABIRATERONE; 5 nM): 1.07 ± 0.014 | surviving fraction (ABIRATERONE; 10 nM): 1.04 ± 0.038 | surviving fraction (ABIRATERONE; 50 nM): 0.947 ± 0.085 | surviving fraction (ABIRATERONE; 100 nM): 0.872 ± 0.1 | surviving fraction (ABIRATERONE; 500 nM): 0.902 ± 0.069 | surviving fraction (ABIRATERONE; 1000 nM): 0.892 ± 0.071 | surviving fraction (DASATINIB; 0.5 nM): 0.774 ± 0.058 | surviving fraction (DASATINIB; 1 nM): 0.817 ± 0.082 | surviving fraction (DASATINIB; 5 nM): 0.607 ± 0.043 | surviving fraction (DASATINIB; 10 nM): 0.563 ± 0.036 | surviving fraction (DASATINIB; 50 nM): 0.292 ± 0.018 | surviving fraction (DASATINIB; 100 nM): 0.252 ± 0.011 | surviving fraction (DASATINIB; 500 nM): 0.177 ± 0.02 | surviving fraction (DASATINIB; 1000 nM): 0.174 ± 0.018

SCC90 HEADNECK
surviving fraction (ABIRATERONE; 0.5 nM): 1.26 ± 0.13 | surviving fraction (ABIRATERONE; 1 nM): 1.09 ± 0.15 | surviving fraction (ABIRATERONE; 5 nM): 1.25 ± 0.14 | surviving fraction (ABIRATERONE; 10 nM): 1.23 ± 0.18 | surviving fraction (ABIRATERONE; 50 nM): 1.21 ± 0.04 | surviving fraction (ABIRATERONE; 100 nM): 1.28 ± 0.1 | surviving fraction (ABIRATERONE; 500 nM): 1.23 ± 0.11 | surviving fraction (ABIRATERONE; 1000 nM): 1.17 ± 0.062 | surviving fraction (DASATINIB; 0.5 nM): 0.823 ± 0.081 | surviving fraction (DASATINIB; 1 nM): 0.868 ± 0.037 | surviving fraction (DASATINIB; 5 nM): 0.803 ± 0.071 | surviving fraction (DASATINIB; 10 nM): 0.85 ± 0.18 | surviving fraction (DASATINIB; 50 nM): 0.527 ± 0.05 | surviving fraction (DASATINIB; 100 nM): 0.542 ± 0.072 | surviving fraction (DASATINIB; 500 nM): 0.433 ± 0.095 | surviving fraction (DASATINIB; 1000 nM): 0.468 ± 0.053

S68 BREAST
surviving fraction (ABIRATERONE; 0.5 nM): 0.939 ± 0.22 | surviving fraction (ABIRATERONE; 1 nM): 0.785 ± 0.063 | surviving fraction (ABIRATERONE; 5 nM): 1.21 ± 0.21 | surviving fraction (ABIRATERONE; 10 nM): 0.925 ± 0.098 | surviving fraction (ABIRATERONE; 50 nM): 1.17 ± 0.021 | surviving fraction (ABIRATERONE; 100 nM): 1.17 ± 0.092 | surviving fraction (ABIRATERONE; 500 nM): 0.942 ± 0.15 | surviving fraction (ABIRATERONE; 1000 nM): 0.878 ± 0.17 | surviving fraction (DASATINIB; 0.5 nM): 0.625 ± 0.11 | surviving fraction (DASATINIB; 1 nM): 0.51 ± 0.096 | surviving fraction (DASATINIB; 5 nM): 0.561 ± 0.11 | surviving fraction (DASATINIB; 10 nM): 0.419 ± 0.12 | surviving fraction (DASATINIB; 50 nM): 0.409 ± 0.029 | surviving fraction (DASATINIB; 100 nM): 0.418 ± 0.041 | surviving fraction (DASATINIB; 500 nM): 0.277 ± 0.053 | surviving fraction (DASATINIB; 1000 nM): 0.298 ± 0.079

U2OS BONE
surviving fraction (ABIRATERONE; 0.5 nM): 1.04 ± 0.05 | surviving fraction (ABIRATERONE; 1 nM): 1.03 ± 0.029 | surviving fraction (ABIRATERONE; 5 nM): 1.1 ± 0.035 | surviving fraction (ABIRATERONE; 10 nM): 1.096 ± 0.004 | surviving fraction (ABIRATERONE; 50 nM): 1.19 ± 0.031 | surviving fraction (ABIRATERONE; 100 nM): 1.08 ± 0.022 | surviving fraction (ABIRATERONE; 500 nM): 1.1 ± 0.016 | surviving fraction (ABIRATERONE; 1000 nM): 1.09 ± 0.032 | surviving fraction (DASATINIB; 0.5 nM): 0.951 ± 0.031 | surviving fraction (DASATINIB; 1 nM): 0.953 ± 0.022 | surviving fraction (DASATINIB; 5 nM): 0.957 ± 0.059 | surviving fraction (DASATINIB; 10 nM): 0.865 ± 0.051 | surviving fraction (DASATINIB; 50 nM): 0.8 ± 0.035 | surviving fraction (DASATINIB; 100 nM): 0.692 ± 0.021 | surviving fraction (DASATINIB; 500 nM): 0.514 ± 0.024 | surviving fraction (DASATINIB; 1000 nM): 0.503 ± 0.006
